Results reported in PubChem BioAssay AID248 (DTP/NCI, 2004).
Several values for one entry are separate records, joined by “and”; a condition that tells them apart may be missing. Equal values may be shown once. Toxic doses and inconclusive results are not listed. Rule as the data show it: active = T/C of 150% or more; inactive = T/C below 125%. Peptide text beside a SMILES is read from it. * marks the point of attachment. Bn = c1ccc(C*)cc1

System: L1210 leukemia ip in BDF1 mice, survival T/C
Experiment: NCI In Vivo Anticancer Drug Screen. Data for tumor model L1210 Leukemia (intraperitoneal) in B6D2F1 (BDF1) mice
Settings: endpoint: mean survival time, higher = longer survival
Method in brief: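 Mice bearing the transplanted tumor received compound or vehicle. Survival of the treated group was divided by that of the vehicle-treated control group to give the ratio.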

[1] = dose: 100.0 mg/kg/injection, schedule: Q01DX009 (ip), vehicle: Klucel (hydroxypropylcellulose) (HPC)
[2] = dose: 100.0 mg/kg/injection, schedule: Q04DX003 (ip), vehicle: Klucel (hydroxypropylcellulose) (HPC)
[3] = dose: 200.0 mg/kg/injection, schedule: Q01DX009 (ip), vehicle: Klucel (hydroxypropylcellulose) (HPC)
[4] = dose: 200.0 mg/kg/injection, schedule: Q04DX003 (ip), vehicle: Klucel (hydroxypropylcellulose) (HPC)
[5] = dose: 400.0 mg/kg/injection, schedule: Q01DX009 (ip), vehicle: Klucel (hydroxypropylcellulose) (HPC)
[6] = dose: 400.0 mg/kg/injection, schedule: Q04DX003 (ip), vehicle: Klucel (hydroxypropylcellulose) (HPC)
[7] = dose: 100.0 mg/kg/injection, schedule: Q01DX009 (ip), vehicle: saline with Tween-80
[8] = dose: 200.0 mg/kg/injection, schedule: Q01DX009 (ip), vehicle: saline with Tween-80
[9] = dose: 400.0 mg/kg/injection, schedule: Q01DX009 (ip), vehicle: saline with Tween-80
[10] = dose: 100.0 mg/kg/injection, schedule: Q04DX003 (ip), vehicle: saline with Tween-80
[11] = dose: 75.0 mg/kg/injection, schedule: Q01DX001 (ip), vehicle: saline
[12] = dose: 150.0 mg/kg/injection, schedule: Q01DX001 (ip), vehicle: saline
[13] = dose: 200.0 mg/kg/injection, schedule: Q04DX003 (ip), vehicle: saline with Tween-80
[14] = dose: 50.0 mg/kg/injection, schedule: Q01DX009 (ip), vehicle: saline
[15] = dose: 50.0 mg/kg/injection, schedule: Q04DX003 (ip), vehicle: saline
[16] = dose: 100.0 mg/kg/injection, schedule: Q01DX009 (ip), vehicle: saline
[17] = dose: 50.0 mg/kg/injection, schedule: Q01DX001 (ip), vehicle: carboxymethylcellulose (CMC)
[18] = dose: 100.0 mg/kg/injection, schedule: Q01DX001 (ip), vehicle: carboxymethylcellulose (CMC)
[19] = dose: 200.0 mg/kg/injection, schedule: Q01DX001 (ip), vehicle: carboxymethylcellulose (CMC)
[20] = dose: 400.0 mg/kg/injection, schedule: Q01DX001 (ip), vehicle: carboxymethylcellulose (CMC)

Measured: T/C

CCCCSP(=O)(c1ccccc1)N1CCCCC1 (stereo not drawn)
inactive: dose: 25.0 mg/kg/injection, schedule: Q04DX002 (ip), vehicle: saline with Tween-80 100 % of control | dose: 50.0 mg/kg/injection, schedule: Q04DX002 (ip), vehicle: saline with Tween-80 92 % of control | dose: 100.0 mg/kg/injection, schedule: Q04DX002 (ip), vehicle: saline with Tween-80 92 % of control and 97 % of control

O=C(O)CNc1cccnc1
inactive: dose: 25.0 mg/kg/injection, schedule: Q01DX009 (ip), vehicle: Klucel (hydroxypropylcellulose) (HPC) 95 % of control | dose: 50.0 mg/kg/injection, schedule: Q01DX009 (ip), vehicle: Klucel (hydroxypropylcellulose) (HPC) 100 % of control | [1] 101 % of control

Cc1[nH]nc(-c2cccnc2)c1N=NN1CCC(C(N)=O)CC1
inactive: dose: 75.0 mg/kg/injection, schedule: Q01DX001 (ip), vehicle: other 103 % of control

COc1ccc(C(C(N)=O)N2CCOCC2)cc1 (stereo not drawn)
inactive: [1] 98 % of control | [2] 95 % of control | [3] 100 % of control | [4] 98 % of control | [5] 97 % of control | [6] 104 % of control

CCCCCCCCCCCCCSCCCCCCSCCCCCCCCCCCCC
inactive: dose: 100.0 mg/kg/injection, schedule: Q01DX001 (ip), vehicle: Klucel (hydroxypropylcellulose) (HPC) 89 % of control | dose: 200.0 mg/kg/injection, schedule: Q01DX001 (ip), vehicle: Klucel (hydroxypropylcellulose) (HPC) 96 % of control | dose: 400.0 mg/kg/injection, schedule: Q01DX001 (ip), vehicle: Klucel (hydroxypropylcellulose) (HPC) 98 % of control

NNC(=O)Cc1ccc(Cl)c2ccccc12
inactive: [2] 104 % of control | [4] 91 % of control

Cc1ccc(O)c(C(=O)C(C)CCCC(C)C)c1 (stereo not drawn)
inactive: dose: 75.0 mg/kg/injection, schedule: Q01DX009 (ip), vehicle: Klucel (hydroxypropylcellulose) (HPC) 89 % of control | dose: 150.0 mg/kg/injection, schedule: Q01DX009 (ip), vehicle: Klucel (hydroxypropylcellulose) (HPC) 94 % of control | dose: 300.0 mg/kg/injection, schedule: Q01DX009 (ip), vehicle: Klucel (hydroxypropylcellulose) (HPC) 100 % of control

O=c1[nH]c(=S)[nH]c(Cc2ccccc2)c1CCO
inactive: [7] 96 % of control | [8] 108 % of control | [9] 96 % of control

COC(=O)C(CC(C)C)NC(=O)C(N)Cc1ccc(OCc2ccccc2)cc1 (stereo not drawn) (H-Tyr(Bn)-Leu-OMe; configuration not given here)
inactive: dose: 6.25 mg/kg/injection, schedule: Q01DX009 (ip), vehicle: saline with Tween-80 111 % of control | dose: 12.5 mg/kg/injection, schedule: Q01DX009 (ip), vehicle: saline with Tween-80 111 % of control | dose: 25.0 mg/kg/injection, schedule: Q01DX009 (ip), vehicle: saline with Tween-80 106 % of control and 90 % of control | dose: 25.0 mg/kg/injection, schedule: Q04DX003 (ip), vehicle: saline with Tween-80 98 % of control | dose: 50.0 mg/kg/injection, schedule: Q04DX003 (ip), vehicle: saline with Tween-80 104 % of control | [10] 96 % of control and 102 % of control

COc1ccccc1N=C(N)N=C(N)N
inactive: [11] 96 % of control | [12] 104 % of control

CCOC(=O)c1ccc(NC(=O)Oc2cc(C)ccc2C)cc1
inactive: [1] 93 % of control | [3] 92 % of control | [5] 90 % of control

Cc1cnc2c(N)nn(-c3ccccc3)c2n1
inactive: [7] 93 % of control | [10] 95 % of control | [8] 101 % of control | [13] 97 % of control | [9] 98 % of control | dose: 400.0 mg/kg/injection, schedule: Q04DX003 (ip), vehicle: saline with Tween-80 94 % of control

CCC(C)C(C(=O)OC1CCN(C)CC1)c1ccccc1 (stereo not drawn)
inactive: dose: 25.0 mg/kg/injection, schedule: Q04DX003 (ip), vehicle: saline 102 % of control | [14] 105 % of control | [15] 96 % of control | [16] 98 % of control | dose: 100.0 mg/kg/injection, schedule: Q04DX003 (ip), vehicle: saline 97 % of control and 108 % of control

O=C(SSC(=O)c1ccccc1)c1ccccc1
inactive: [17] 96 % of control | [18] 94 % of control | [19] 90 % of control | [20] 107 % of control

CC(=O)OC1CC2CC1C1C3C=CC(C3)C21 (stereo not drawn)
inactive: dose: 100.0 mg/kg/injection, schedule: Q01DX001 (ip), vehicle: saline 98 % of control | dose: 200.0 mg/kg/injection, schedule: Q01DX001 (ip), vehicle: saline 95 % of control | dose: 400.0 mg/kg/injection, schedule: Q01DX001 (ip), vehicle: saline 106 % of control

CCCCCCCCCCCCCCOc1ccc(C(=O)CC(=O)OC)cc1
inactive: [2] 90 % of control | [4] 98 % of control | [6] 90 % of control

CC1CC(O)=C(c2ccccc2)P1(=O)Cc1ccccc1 (stereo not drawn)
inactive: [2] 95 % of control | [4] 95 % of control | [6] 89 % of control

O=C(O)c1ccc[n+]([O-])c1
inactive: [10] 100 % of control | [13] 100 % of control

CC(=O)C(C)(O)C(C)(C)C (stereo not drawn)
inactive: [16] 88 % of control | dose: 200.0 mg/kg/injection, schedule: Q01DX009 (ip), vehicle: saline 90 % of control | dose: 400.0 mg/kg/injection, schedule: Q01DX009 (ip), vehicle: saline 98 % of control

CC(C)Cc1ccc(C[N+]23CN4CN(CN(C4)C2)C3)cc1
inactive: [11] 100 % of control | [12] 96 % of control | dose: 300.0 mg/kg/injection, schedule: Q01DX001 (ip), vehicle: saline 102 % of control

Cc1ncc(CC#N)c2c1OC(C)(C)OC2
inactive: dose: 12.5 mg/kg/injection, schedule: Q01DX001 (ip), vehicle: carboxymethylcellulose (CMC) 107 % of control | dose: 25.0 mg/kg/injection, schedule: Q01DX001 (ip), vehicle: carboxymethylcellulose (CMC) 104 % of control | [17] 101 % of control

CO/C=C1\Cc2cc(OC)c(OC)cc2C1=O
inactive: [7] 102 % of control | [8] 104 % of control | [9] 94 % of control

O=C(O)c1cc(Br)cc(Cl)c1Br
inactive: dose: 100.0 mg/kg/injection, schedule: Q04DX002 (ip), vehicle: Klucel (hydroxypropylcellulose) (HPC) 96 % of control | dose: 200.0 mg/kg/injection, schedule: Q04DX002 (ip), vehicle: Klucel (hydroxypropylcellulose) (HPC) 96 % of control

Cc1c(S(=O)(=O)F)ccc(O)c1[N+](=O)[O-]
inactive: [1] 104 % of control | [3] 104 % of control | [5] 110 % of control

O=C1NC(=O)C(=Cc2cc(Br)ccc2[N+](=O)[O-])C(=O)N1
inactive: [18] 91 % of control | [19] 104 % of control | [20] 91 % of control

CCCN(CCC)CCCOC(=O)c1ccc(N)cc1
inactive: dose: 25.0 mg/kg/injection, schedule: Q01DX009 (ip), vehicle: saline 99 % of control | dose: 44.0 mg/kg/injection, schedule: Q04DX003 (ip), vehicle: saline 86 % of control | [14] 106 % of control | [15] 104 % of control | dose: 66.0 mg/kg/injection, schedule: Q04DX003 (ip), vehicle: saline 88 % of control | dose: 67.0 mg/kg/injection, schedule: Q04DX003 (ip), vehicle: saline 93 % of control | [16] 89 % of control
